≈ marks a conversion by molar mass, not a printed value. Where “and” joins values, the source holds several entries; their conditions need not be identical. Equal entries are not always repeated.
Assays:
[1] = Lipophilicity determination by RP-HPLC (capacity factor log k); assay type: physicochemical; settings: isocratic, MeOH 60%/H2O 40%, C18
Method: A HPLC system Agilent 1200 equipped with DAD detector (Agilent, Santa Clara, CA, USA) was used. A chromatographic column Symmetry® C18 5 μm, 4.6 × 250 mm, Part No. WAT054275, (Waters Corp., Milford, MA, USA) was used. The HPLC separation process was monitored and evaluated by EZChrom Elite software ver. 3.3.2 (Agilent). Isocratic elution by a mixture of MeOH p.a. (60%) and H2O-HPLC Mili-Q grade (40%) as a mobile phase was used. The total flow of the column was 1.0 mL/min, injection 20 μL, column temperature 40 °C and sample temperature 10 °C. The detection wavelength 210 nm was chosen. The KI methanolic solution was used for the dead time (tD) determination. Retention times (tR) were measured in minutes. The capacity factors k were calculated according to formula k = (tR − tD)/tD, where tR is the retention time of the solute, whereas tD denotes the dead time obtained using an unretained analyte. Log k, calculated from the capacity factor k, is used as the lipophilicity index converted to log P scale.

[2] = system: Staphylococcus aureus ATCC 29213; assay: In vitro antibacterial susceptibility testing (broth dilution MIC); assay type: cell-based; settings: ATCC29213; Staphylococcus aureus ATCC 29213, 24 h, 37 °C
Method: (§1) The synthesized compounds were evaluated for in vitro antibacterial activity against representatives of multidrug-resistant bacteria, clinical isolates of methicillin-resistant Staphylococcus aureus (MRSA) 63718, SA 630 and SA 3202 that were obtained from the National Institute of Public Health, Prague, Czech Republic. Staphylococcus aureus ATCC 29213 was used as a reference and quality control strain. Ampicillin (Sigma-Aldrich) was used as the standard. Prior to testing, each strain was passaged onto nutrient agar (Oxoid, Hampshire, UK) with 5% of bovine blood, and bacterial inocula were prepared by suspending a small portion of bacterial colony in sterile phosphate buffered saline (pH 7.2–7.3). The cell density was adjusted to 0.5 McFarland units using a densitometer (Densi-La-Meter, LIAP, Riga, Latvia). The final inoculum was made by 1:20 dilution of the suspension with the Mueller-Hinton broth (MH broth). […] The final concentrations of the evaluated compounds ranging from 256 μg/mL to 0.008 μg/mL. The broth dilution micro-method modified according to NCCLS guidelines in MH broth was used to determine the minimum inhibitory concentration (MIC). Drug-free controls, sterility controls and controls consisted of MH broth and DMSO alone were included. The determination of results was performed visually after 24 h of static incubation in the darkness at 37 °C in an aerobic atmosphere. The MICs were defined as the lowest concentration of the compound at which no visible bacterial growth was observed.

[3] = system: methicillin-resistant Staphylococcus aureus (MRSA) 63718; assay: as above; assay type: cell-based; settings: clinical isolate MRSA 63718, 24 h, 37 °C
Method: as §1

[4] = system: methicillin-resistant Staphylococcus aureus SA 630; assay: as above; assay type: cell-based; settings: MRSA, clinical isolate SA 630, 24 h, 37 °C
Method: as §1

[5] = system: methicillin-resistant Staphylococcus aureus SA 3202; assay: as above; assay type: cell-based; settings: MRSA, clinical isolate SA 3202, 24 h, 37 °C, read-out: MIC MRSA 3202
Method: as §1

[6] = system: photosynthetic electron transport (PET) in spinach chloroplasts; assay: Inhibition of photosynthetic electron transport (PET) in spinach chloroplasts; assay type: biochemical, Spinacia oleracea L.; settings: DCPIP photoreduction
Method: Chloroplasts were prepared from spinach (Spinacia oleracea L.) according to Masarovicova and Kralova. The inhibition of photosynthetic electron transport (PET) in spinach chloroplasts was determined spectrophotometrically (Genesys 6, Thermo Electron Scientific Instruments, Madison, WI, USA), using an artificial electron acceptor 2,6-dichlorophenol-indophenol (DCPIP) according to Kralova et al., and the rate of photosynthetic electron transport was monitored as a photoreduction of DCPIP. The measurements were carried out in phosphate buffer (0.02 mol/L, pH 7.2) containing sucrose (0.4 mol/L), MgCl2 (0.005 mol/L) and NaCl (0.015 mol/L). The chlorophyll content was 30 mg/L in these experiments and the samples were irradiated (~100 W/m^2 with 10 cm distance) with a halogen lamp (250 W) using a 4 cm water filter to prevent warming of the samples (suspension temperature 22 °C). The studied compounds were dissolved in DMSO due to their limited water solubility. […] The inhibitory efficiency of the studied compounds was expressed by IC50 values, i.e., by molar concentration of the compounds causing 50% decrease in the oxygen evolution rate relative to the untreated control.

M. smegmatis ATCC 700084 = assay: In vitro antimycobacterial evaluation (broth dilution MIC); assay type: cell-based, Mycobacterium smegmatis; settings: Mycolicibacterium smegmatis, ATCC700084, 72 h; M. smegmatis ATCC 700084, 3 days, 37 °C
M. kansasii DSM 44162 = assay: as above; assay type: cell-based; settings: Mycobacterium kansasii, DSM44162, 168 h; M. kansasii DSM 44162, 7 days, 37 °C
[7] = system: Mycobacterium avium subsp. paratuberculosis (CIT03); assay: In vitro antimycobacterial evaluation (alamarBlue MIC); assay type: cell-based; settings: 264 h, M. avium paratuberculosis CIT03, 11 days, 37 °C
Method: A well characterised clinical isolate of Mycobacterium avium subsp. paratuberculosis (CIT03) was grown in Middlebrook broth (MB), supplemented with Oleic-Albumin-Dextrose-Catalase supplement (OADC, Becton, Dickinson & Comp., Franklin Lakes, NJ, USA) and mycobactin J (2 µg/mL). Identification of this isolate was performed using biochemical and molecular protocols. At log phase growth, a culture sample (10 mL) was centrifuged at 15,000 rpm/20 min using a bench top centrifuge (Model CR 4-12, Jouan Inc., Winchester, VA, USA). Following removal of the supernatant, the pellet was washed in fresh Middlebrook 7H9GC broth and re-suspended in fresh supplemented MB (10 mL). The turbidity was adjusted to match McFarland standard No. 1 (3 × 10^8 cfu) with MB broth. A further 1:20 dilution of the culture was then performed in MB broth. The antimicrobial susceptibility of the mycobacterial species was investigated in a 96-well plate format. In these experiments, sterile deionised water (300 µL) was added to all outer-perimeter wells of the plates to minimize evaporation of the medium in the test wells during incubation. Each evaluated compound (100 µL) was incubated with each of the mycobacterial species (100 µL). Dilutions of each compound were prepared in duplicate. For all synthesized compounds, final concentrations ranged from 1,000 µg/mL to 8 µg/mL. All compounds were prepared in DMSO and subsequent dilutions were made in supplemented MB. The plates were sealed with parafilm and incubated at 37 °C, for 11 days in the case of M. avium paratuberculosis. Following incubation, a 10% addition of alamarBlue (AbD Serotec, Kidlington, UK) was mixed into each well and readings at 570 nm and 600 nm were taken, initially for background subtraction and subsequently after 24 h re-incubation. The background subtraction is necessary for strongly coloured compounds, where the colour may interfere with the interpretation of any colour change. For non-interfering compounds, a blue colour in the well was interpreted as an absence of growth and a pink colour was scored as growth. The minimum inhibitory concentrations (MICs) were initially defined as the lowest concentration which prevented a visual colour change from blue to pink.
The MICs were defined as the lowest concentration of the compound at which no visible bacterial growth was observed. The MIC value is routinely and widely used in bacterial assays and is a standard detection limit according to the Clinical and Laboratory Standards Institute (CLSI). Isoniazid (Sigma-Aldrich) was used as reference antimycobacterial drug.

[8] = system: Mycobacterium marinum CAMP 5644; assay: In vitro antimycobacterial evaluation (broth dilution MIC); assay type: cell-based; settings: for MIC: Mycobacterium marinum, CAMP5644, 504 h, M. marinum CAMP 5644, 21 days, 28 °C

Row | SMILES | log k [1] | MIC [2] | MIC [3] | MIC [4] | MIC [5] | IC50 [6] | MIC (M. smegmatis ATCC 700084) | MIC (M. kansasii DSM 44162) | MIC [7] | MIC [8] | fold higher activity against M. marinum than isoniazid ([8]; ratio of MIC to isoniazid)
1 | CC1(C)S[C@@H]2[C@H](NC(=O)[C@H](N)c3ccccc3)C(=O)N2[C@H]1C(=O)O [APC, ampicillin, reference compound] | 0.4337 | 5.7 µM (≈ 1.99 µg/mL) | > 45.8 µM | > 45.8 µM | > 45.8 µM |  |  |  |  |  | 
2 | COc1ccccc1NC(=O)c1c(O)ccc2ccccc12 [Compound 2a, 2-Hydroxy-N-(2-methoxyphenyl)naphthalene-1-carboxamide] | 0.5121 | > 873 µM | > 873 µM | > 873 µM | > 873 µM | 477 µM | > 873 µM | > 873 µM | 852 µM (≈ 250 µg/mL) | > 873 µM | 
3 | COc1cccc(NC(=O)c2c(O)ccc3ccccc23)c1 [Compound 2b, 2-Hydroxy-N-(3-methoxyphenyl)naphthalene-1-carboxamide] | 0.6582 |  |  |  | 218 µM (≈ 63.9 µg/mL) | 681 µM | 218 µM (≈ 63.9 µg/mL) | 109 µM (≈ 32 µg/mL) | 426 µM (≈ 125 µg/mL) | 218 µM (≈ 63.9 µg/mL) | 
4 | COc1ccc(NC(=O)c2c(O)ccc3ccccc23)cc1 [Compound 2c, 2-Hydroxy-N-(4-methoxyphenyl)naphthalene-1-carboxamide] | 0.6342 |  |  |  |  |  |  | 218 µM (≈ 63.9 µg/mL) | 852 µM (≈ 250 µg/mL) | 109 µM (≈ 32 µg/mL) | 
5 | Cc1ccccc1NC(=O)c1c(O)ccc2ccccc12 [Compound 3a, 2-Hydroxy-N-(2-methylphenyl)naphthalene-1-carboxamide] | 0.7962 |  |  |  |  | 586 µM |  | 115 µM (≈ 31.9 µg/mL) | 451 µM (≈ 125 µg/mL) | 231 µM (≈ 64.1 µg/mL) | 
6 | Cc1cccc(NC(=O)c2c(O)ccc3ccccc23)c1 [Compound 3b, 2-Hydroxy-N-(3-methylphenyl)naphthalene-1-carboxamide] | 0.4593 | 231 µM (≈ 64.1 µg/mL) |  | 231 µM (≈ 64.1 µg/mL) | 231 µM (≈ 64.1 µg/mL) | 372 µM | 231 µM (≈ 64.1 µg/mL) | 115 µM (≈ 31.9 µg/mL) | 451 µM (≈ 125 µg/mL) | 231 µM (≈ 64.1 µg/mL) | 
7 | Cc1ccc(NC(=O)c2c(O)ccc3ccccc23)cc1 [Compound 3c, 2-Hydroxy-N-(4-methylphenyl)naphthalene-1-carboxamide] | 0.3751 | 231 µM (≈ 64.1 µg/mL) |  |  |  | 874 µM |  | 115 µM (≈ 31.9 µg/mL) | 451 µM (≈ 125 µg/mL) | 115 µM (≈ 31.9 µg/mL) | 
8 | O=C(Nc1ccccc1F)c1c(O)ccc2ccccc12 [Compound 4a, N-(2-fluorophenyl)-2-hydroxynaphthalene-1-carboxamide] | 0.5664 | 228 µM (≈ 64.1 µg/mL) | 455 µM (≈ 128 µg/mL) | 455 µM (≈ 128 µg/mL) | 455 µM (≈ 128 µg/mL) | 243 µM | 228 µM (≈ 64.1 µg/mL) | 114 µM (≈ 32.1 µg/mL) | 203 µM (≈ 57.1 µg/mL) | 228 µM (≈ 64.1 µg/mL) | 
9 | O=C(Nc1cccc(F)c1)c1c(O)ccc2ccccc12 [Compound 4b, N-(3-fluorophenyl)-2-hydroxynaphthalene-1-carboxamide] | 0.5025 | 228 µM (≈ 64.1 µg/mL) | > 910 µM | > 910 µM | 228 µM (≈ 64.1 µg/mL) | 213 µM | > 910 µM | 114 µM (≈ 32.1 µg/mL) | > 889 µM | > 910 µM | 
10 | O=C(Nc1ccc(F)cc1)c1c(O)ccc2ccccc12 [Compound 4c, N-(4-fluorophenyl)-2-hydroxynaphthalene-1-carboxamide] | 0.5568 | > 910 µM | > 910 µM | > 910 µM | > 910 µM | 313 µM | > 910 µM | > 910 µM | > 889 µM | > 910 µM | 
11 | O=C(Nc1cccc(Cl)c1)c1c(O)ccc2ccccc12 [Compound 5b, N-(3-chlorophenyl)-2-hydroxynaphthalene-1-carboxamide] | 0.7904 | > 860 µM | > 860 µM | > 860 µM | 107 µM (≈ 31.9 µg/mL) | 79.7 µM | 215 µM (≈ 64 µg/mL) | 53.7 µM (≈ 16 µg/mL) | 840 µM (≈ 250 µg/mL) | > 860 µM | 
12 | O=C(Nc1ccc(Cl)cc1)c1c(O)ccc2ccccc12 [Compound 5c, N-(4-chlorophenyl)-2-hydroxynaphthalene-1-carboxamide] | 0.7908 | 215 µM (≈ 64 µg/mL) | > 860 µM | > 860 µM | 107 µM (≈ 31.9 µg/mL) | 59.2 µM | > 860 µM | 53.7 µM (≈ 16 µg/mL) | 420 µM (≈ 125 µg/mL) | > 860 µM | 
13 | O=C(Nc1ccc([N+](=O)[O-])cc1)c1c(O)ccc2ccccc12 [Compound 8c, 2-Hydroxy-N-(4-nitrophenyl)naphthalene-1-carboxamide] | 0.6260 |  |  |  | 104 µM (≈ 32.1 µg/mL) | 37.5 µM |  | 415 µM (≈ 128 µg/mL) | 811 µM (≈ 250 µg/mL) | ~52 µM (≈ 16 µg/mL) | about 9 fold
14 | CN(C)C(=O)Nc1ccc(Cl)c(Cl)c1 [DCMU, 3-(3,4-dichlorophenyl)-1,1-dimethylurea, reference compound] | 0.8801 |  |  |  |  | ~1.9 µM and 1.9 µM |  |  |  |  | 
15 | NNC(=O)c1ccncc1 [INH, isoniazid, reference compound] | 0.0141 |  |  |  |  |  |  |  | > 1820 µM | 467 µM (≈ 64 µg/mL) | 

— publication PMC6270026, “Antibacterial and Herbicidal Activity of Ring-Substituted 2-Hydroxynaphthalene-1-carboxanilides” (Molecules, 2013)
